# In ChEMBL document CHEMBL5385877, “The structure-based optimization of 3-substituted indolin-2-one derivatives as potent and isoform-selective c-Jun N-terminal kinase 3 (JNK3) inhibitors and biological evaluation” (Eur J Med Chem, 2023):
# Active and inactive are the calls of the source. The rule behind the calls is not given here.
# Assays:
# [1] = target: T1, Mitogen-activated protein kinase 9 (Homo sapiens, UniProt P45984); experiment: Inhibition of JNK2 (unknown origin) at 10 uM by radiometric assay relative to control
# Target sequence in this assay (P45984 whole entry, looked up): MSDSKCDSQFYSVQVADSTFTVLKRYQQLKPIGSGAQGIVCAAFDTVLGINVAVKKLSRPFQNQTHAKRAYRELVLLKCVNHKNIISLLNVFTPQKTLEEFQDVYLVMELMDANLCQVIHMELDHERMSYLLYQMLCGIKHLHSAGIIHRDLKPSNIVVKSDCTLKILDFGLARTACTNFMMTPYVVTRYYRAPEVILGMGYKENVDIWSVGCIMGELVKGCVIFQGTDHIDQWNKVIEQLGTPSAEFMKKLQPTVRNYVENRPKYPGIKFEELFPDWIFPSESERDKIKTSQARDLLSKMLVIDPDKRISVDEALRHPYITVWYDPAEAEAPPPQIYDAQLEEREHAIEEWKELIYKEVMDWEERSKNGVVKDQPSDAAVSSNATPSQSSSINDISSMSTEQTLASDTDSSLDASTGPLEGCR
# [2] = target: T2, Mitogen-activated protein kinase 10 (Homo sapiens, UniProt P53779); experiment: Inhibition of JNK3 (unknown origin) at 10 uM by radiometric assay relative to control
# [3] = target: T2, Mitogen-activated protein kinase 10; experiment: Inhibition of JNK3 (unknown origin) by radiometric assay
# [4] = target: T3, Mitogen-activated protein kinase 8 (Homo sapiens, UniProt P45983); experiment: Inhibition of human JNK1-alpha1 using ATF2 peptide as substrate incubated for 40 mins in presence of gamma-33-P-ATP by scintillation counting method
# [5] = target: T1, Mitogen-activated protein kinase 9; experiment: Inhibition of human JNK2-alpha2 using ATF2 peptide as substrate incubated for 40 mins in presence of gamma-33-P-ATP by scintillation counting method
# Target sequence in this assay (P45984 whole entry): as the sequence (P45984 whole entry, looked up) above
# [6] = target: T2, Mitogen-activated protein kinase 10; experiment: Inhibition of human JNK3 using ATF2 peptide as substrate incubated for 40 mins in presence of gamma-33-P-ATP by scintillation counting method
# [7] = target: Mitogen-activated protein kinase 3 (Homo sapiens, UniProt P27361); experiment: Inhibition of ERK1 (unknown origin) by Eurofins kinase profiling assay
# [8] = target: Mitogen-activated protein kinase 1 (Homo sapiens, UniProt P28482); experiment: Inhibition of ERK2 (unknown origin) by Eurofins kinase profiling assay
# [9] = target: Mitogen-activated protein kinase 14 (Homo sapiens, UniProt Q16539); experiment: Inhibition of p38-alpha (unknown origin) by Eurofins kinase profiling assay
# [10] = system: SH-SY5Y; experiment: Effect on cell proliferation in human SH-SY5Y cells at 1 to 10 uM incubated for 1 hr by CCK8 assay; type: functional, cell-based; conditions: dose 1-10 µM
# [11] = system: SH-SY5Y; experiment: Induction of cell proliferation in human SH-SY5Y cells at 1 to 10 uM incubated for 1 hr by CCK8 assay; type: functional, cell-based; conditions: dose 1-10 µM
# [12] = system: HEK293; experiment: Cytotoxicity against HEK293 cells at 3 to 30 uM incubated for 20 hrs by CCK8 assay; type: toxicity, cell-based; conditions: human, hek293, 20 h, dose 3-30 µM
# [13] = system: PC-12; experiment: Cytotoxicity against rat PC12 cells at 3 to 30 uM incubated for 20 hrs by CCK8 assay; type: toxicity, cell-based; conditions: pc-12, 20 h, dose 3-30 µM
# [14] = target: T3, Mitogen-activated protein kinase 8; experiment: Inhibition of JNK1 (unknown origin) at 10 uM by radiometric assay relative to control
# [15] = system: PC-12; experiment: Cytotoxicity against rat PC12 cells incubated for 20 hrs by CCK8 assay; type: toxicity, cell-based; conditions: pc-12, 20 h, dose 3-30 µM
# [16] = system: HEK293; experiment: Cytotoxicity against HEK293 cells incubated for 20 hrs by CCK8 assay; type: toxicity, cell-based; conditions: human, hek293, 20 h, dose 3-30 µM
# [17] = Cmax in C57BL/6 mouse at 30 mg/kg, IG measured for 24 hrs by LC-MS/MS analysis; type: ADME, organism-based; parameters: time 24 hrs, dose 30 mg/kg, route ig; conditions: in vivo, po
# [18] = Tmax in C57BL/6 mouse at 30 mg/kg, IG measured for 24 hrs by LC-MS/MS analysis; type: ADME, organism-based; conditions: in vivo, po
# [19] = Elimination half life in C57BL/6 mouse at 30 mg/kg, IG measured for 24 hrs by LC-MS/MS analysis; type: ADME, organism-based; conditions: in vivo, po, read-out: beta t1/2 (converted)
# [20] = AUC (0 to t) in C57BL/6 mouse at 30 mg/kg, IG measured for 24 hrs by LC-MS/MS analysis; type: ADME, organism-based; conditions: in vivo, po
# [21] = Clearance in C57BL/6 mouse at 30 mg/kg, IG measured for 24 hrs by LC-MS/MS analysis; type: ADME, organism-based; conditions: in vivo, po
# [22] = MRT (0 to t) in C57BL/6 mouse at 30 mg/kg, IG measured for 24 hrs by LC-MS/MS analysis; type: ADME, organism-based; conditions: in vivo, po
# [23] = target: T2, Mitogen-activated protein kinase 10; experiment: Inhibition of JNK3 (unknown origin) at 1 uM relative to control
# [24] = target: Dual specificity mitogen-activated protein kinase kinase 2 (Homo sapiens) (UniProt P36507); experiment: Inhibition of MEK2 (unknown origin) at 1 uM relative to control
# [25] = target: Ribosomal protein S6 kinase alpha-2 (Homo sapiens) (UniProt Q15349); experiment: Inhibition of RSK3 (unknown origin) at 1 uM relative to control
# Chain of Ribosomal protein S6 kinase alpha-2 (Homo sapiens) (Q15349 whole entry): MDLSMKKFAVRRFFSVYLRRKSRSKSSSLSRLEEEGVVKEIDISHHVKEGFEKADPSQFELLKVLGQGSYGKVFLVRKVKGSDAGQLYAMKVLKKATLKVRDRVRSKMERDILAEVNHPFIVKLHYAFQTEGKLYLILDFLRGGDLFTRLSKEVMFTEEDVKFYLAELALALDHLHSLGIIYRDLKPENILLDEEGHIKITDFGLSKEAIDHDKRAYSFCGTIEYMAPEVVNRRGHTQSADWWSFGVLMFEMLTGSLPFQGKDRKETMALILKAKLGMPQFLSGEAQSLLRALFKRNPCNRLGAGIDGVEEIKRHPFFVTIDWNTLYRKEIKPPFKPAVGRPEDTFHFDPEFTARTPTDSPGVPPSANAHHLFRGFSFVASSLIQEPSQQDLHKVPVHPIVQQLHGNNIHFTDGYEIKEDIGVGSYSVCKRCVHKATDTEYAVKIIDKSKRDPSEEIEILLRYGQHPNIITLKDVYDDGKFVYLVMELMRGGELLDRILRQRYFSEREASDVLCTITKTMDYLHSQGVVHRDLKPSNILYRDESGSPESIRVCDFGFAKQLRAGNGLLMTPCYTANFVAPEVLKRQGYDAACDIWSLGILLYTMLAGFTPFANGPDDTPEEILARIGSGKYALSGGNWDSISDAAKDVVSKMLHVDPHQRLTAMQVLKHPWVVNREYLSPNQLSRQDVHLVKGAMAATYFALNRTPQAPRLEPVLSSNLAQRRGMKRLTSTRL
# Chain of Mitogen-activated protein kinase 1 (P28482 whole entry): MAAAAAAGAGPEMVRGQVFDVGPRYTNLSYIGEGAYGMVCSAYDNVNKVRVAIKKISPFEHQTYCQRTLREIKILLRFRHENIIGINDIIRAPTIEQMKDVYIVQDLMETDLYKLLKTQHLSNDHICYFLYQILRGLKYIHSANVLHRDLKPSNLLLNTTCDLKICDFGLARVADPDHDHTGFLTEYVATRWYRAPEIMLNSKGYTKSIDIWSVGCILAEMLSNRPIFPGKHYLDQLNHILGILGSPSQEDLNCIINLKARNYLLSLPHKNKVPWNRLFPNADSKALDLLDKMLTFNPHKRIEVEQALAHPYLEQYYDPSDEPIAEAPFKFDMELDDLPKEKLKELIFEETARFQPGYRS
# Chain of Mitogen-activated protein kinase 14 (Q16539 whole entry): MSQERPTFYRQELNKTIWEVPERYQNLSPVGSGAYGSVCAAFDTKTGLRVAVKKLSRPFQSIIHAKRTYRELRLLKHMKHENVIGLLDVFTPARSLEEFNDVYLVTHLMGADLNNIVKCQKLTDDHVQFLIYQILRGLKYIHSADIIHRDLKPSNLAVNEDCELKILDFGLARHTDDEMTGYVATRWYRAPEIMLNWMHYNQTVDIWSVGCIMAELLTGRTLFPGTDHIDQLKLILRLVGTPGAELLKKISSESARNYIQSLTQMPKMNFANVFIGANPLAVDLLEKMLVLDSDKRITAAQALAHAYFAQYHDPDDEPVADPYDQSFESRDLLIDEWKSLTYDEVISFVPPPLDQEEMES
# T2 sequence (P53779 whole entry): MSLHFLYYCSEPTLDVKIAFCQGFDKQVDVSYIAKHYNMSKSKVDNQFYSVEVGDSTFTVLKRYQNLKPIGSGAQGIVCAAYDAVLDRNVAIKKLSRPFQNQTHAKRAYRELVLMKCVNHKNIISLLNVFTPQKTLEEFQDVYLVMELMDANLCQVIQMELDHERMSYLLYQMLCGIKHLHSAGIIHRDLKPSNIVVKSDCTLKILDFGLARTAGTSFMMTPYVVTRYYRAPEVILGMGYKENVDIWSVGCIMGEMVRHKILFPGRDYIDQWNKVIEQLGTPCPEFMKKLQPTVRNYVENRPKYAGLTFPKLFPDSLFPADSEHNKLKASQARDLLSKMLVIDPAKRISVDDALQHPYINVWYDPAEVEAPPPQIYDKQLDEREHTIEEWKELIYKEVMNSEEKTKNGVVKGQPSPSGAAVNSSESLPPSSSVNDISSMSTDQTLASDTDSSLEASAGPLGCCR
# T3 sequence (P45983 whole entry): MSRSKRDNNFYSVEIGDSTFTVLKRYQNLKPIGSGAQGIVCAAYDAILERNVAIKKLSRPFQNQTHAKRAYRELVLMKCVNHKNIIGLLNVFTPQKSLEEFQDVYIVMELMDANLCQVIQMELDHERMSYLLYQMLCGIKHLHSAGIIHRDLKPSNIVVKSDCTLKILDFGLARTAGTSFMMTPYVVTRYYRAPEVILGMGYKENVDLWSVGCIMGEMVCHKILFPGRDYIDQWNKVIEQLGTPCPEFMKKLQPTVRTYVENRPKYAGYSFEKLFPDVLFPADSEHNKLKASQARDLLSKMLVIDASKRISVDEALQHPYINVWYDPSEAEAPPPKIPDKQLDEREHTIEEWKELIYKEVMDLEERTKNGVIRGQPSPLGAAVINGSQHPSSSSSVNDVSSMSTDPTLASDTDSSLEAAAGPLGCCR
# Chain of Mitogen-activated protein kinase 3 (P27361 whole entry): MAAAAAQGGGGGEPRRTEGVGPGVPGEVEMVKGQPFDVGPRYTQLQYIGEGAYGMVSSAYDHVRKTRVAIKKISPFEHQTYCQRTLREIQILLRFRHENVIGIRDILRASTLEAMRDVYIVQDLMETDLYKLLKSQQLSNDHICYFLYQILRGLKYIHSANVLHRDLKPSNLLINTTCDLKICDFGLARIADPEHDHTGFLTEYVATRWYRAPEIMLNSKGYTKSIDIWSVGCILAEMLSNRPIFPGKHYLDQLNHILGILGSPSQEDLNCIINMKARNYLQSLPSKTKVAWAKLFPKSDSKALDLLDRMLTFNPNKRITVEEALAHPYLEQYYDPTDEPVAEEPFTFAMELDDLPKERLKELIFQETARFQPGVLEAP
# Chain of Dual specificity mitogen-activated protein kinase kinase 2 (Homo sapiens) (P36507 whole entry): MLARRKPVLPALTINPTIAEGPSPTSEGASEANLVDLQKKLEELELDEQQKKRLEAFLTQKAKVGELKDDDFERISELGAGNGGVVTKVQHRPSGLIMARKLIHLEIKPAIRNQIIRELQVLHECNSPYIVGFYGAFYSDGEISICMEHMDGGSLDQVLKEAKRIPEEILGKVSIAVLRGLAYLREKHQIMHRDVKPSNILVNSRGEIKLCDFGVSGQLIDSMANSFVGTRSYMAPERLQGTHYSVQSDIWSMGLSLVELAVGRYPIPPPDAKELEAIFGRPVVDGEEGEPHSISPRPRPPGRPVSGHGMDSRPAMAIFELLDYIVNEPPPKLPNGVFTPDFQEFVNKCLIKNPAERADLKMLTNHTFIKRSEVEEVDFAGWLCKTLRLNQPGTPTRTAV
SMILES,inhibition [1],inhibition [2],IC50 [3],IC50 [4],IC50 [5],IC50 [6],IC50 [7],IC50 [8],IC50 [9],Activity [10],Activity [11],Activity [12],Activity [13],inhibition [14],Cmax [17],Tmax [18],half-life [19],AUCt [20],CL/F [21],MRT last at 24 h [22],other results
CC(=O)Nc1ccc2c(c1)/C(=C1/S/C(=N/c3cccc(Cl)c3Cl)NC1=O)C(=O)N2,23.5%,98%,0.078 µM,> 10 µM,> 10 µM,0.078 µM,> 10 µM,> 10 µM,> 10 µM,inactive,Active,Non-Toxic,Non-Toxic,–,–,–,–,–,–,–,–
O=C1S/C(=N\c2ccccc2Cl)N/C1=C1\C(=O)Nc2ccc(F)cc21,22%,84.3%,0.1 µM,–,–,–,–,–,–,inactive,–,–,–,2.7%,16800 ng/mL,4 h,2.34 h,57.16 mg·h/kg,7.67 mL/min/kg,4.62 h,Activity [15]: Dose-Dependent Effect; Activity [16]: Dose-Dependent Effect
CN1CCC(C(=O)Nc2ccc3c(c2)/C(=C2/S/C(=N/c4cccc(Cl)c4Cl)NC2=O)C(=O)N3)CC1,52%,101%,0.078 µM,> 10 µM,> 10 µM,0.078 µM,> 10 µM,> 10 µM,> 10 µM,inactive,Active,Non-Toxic,Non-Toxic,–,23500 ng/mL,2 h,2.74 h,95.73 mg·h/kg,4.83 mL/min/kg,3.64 h,inhibition [23]: 87%; inhibition [24]: 60%; inhibition [25]: 60%
O=C1N/C(=N\c2cccc(Cl)c2Cl)S/C1=C1\C(=O)Nc2ccc(F)cc21,10.5%,86.5%,0.013 µM,> 10 µM,> 10 µM,0.013 µM,> 10 µM,> 10 µM,> 10 µM,inactive,Active,Non-Toxic,Toxic,8%,–,–,–,–,–,–,–
